Experimental data published in ChEMBL document CHEMBL5380795, “Design, Synthesis, and Bioactivity Investigation of Cyclic Lipopeptide Antibiotics Containing Eight to Nine Amino Acids” (J Med Chem, 2023).
Converted amounts (≈) assume the structure as drawn.

How the values were obtained:
Staphylococcus aureus [1] = test: Antibacterial activity against Staphylococcus aureus ATCC 29213 assessed as inhibition of bacterial growth incubated for 18 to 24 hrs by broth microdilution method; type: functional; details: time 18-24 hrs
Pseudomonas aeruginosa [2] = test: Antibacterial activity against carbapenem resistant Pseudomonas aeruginosa clinical isolate 17-1 assessed as inhibition of bacterial growth incubated for 18 to 24 hrs by broth microdilution method; type: functional; details: time 18-24 hrs
Acinetobacter baumannii [3] = test: Antibacterial activity against oxacillinase-27 producing Acinetobacter baumannii NCTC 13304 assessed as inhibition of bacterial growth incubated for 18 to 24 hrs by broth microdilution method; type: functional; details: time 18-24 hrs
Klebsiella pneumoniae [4] = test: Antibacterial activity against carbapenem resistant Klebsiella pneumoniae clinical isolate 19-15 assessed as inhibition of bacterial growth incubated for 18 to 24 hrs by broth microdilution method; type: functional; details: time 18-24 hrs
Pseudomonas aeruginosa [5] = test: Antibacterial activity against Pseudomonas aeruginosa clinical isolate 19-1 assessed as inhibition of bacterial growth incubated for 18 to 24 hrs by broth microdilution method; type: functional; details: time 18-24 hrs
Escherichia coli [6] = test: Antibacterial activity against Escherichia coli clinical isolate 19-2 assessed as inhibition of bacterial growth incubated for 18 to 24 hrs by broth microdilution method; type: functional; details: time 18-24 hrs
[7] = system: Staphylococcus epidermidis; test: Antibacterial activity against methicillin resistant Staphylococcus epidermidis clinical isolate 19-6 assessed as inhibition of bacterial growth incubated for 18 to 24 hrs by broth microdilution method; type: functional; details: time 18-24 hrs
Klebsiella pneumoniae [8] = test: Antibacterial activity against KPC producing Klebsiella pneumoniae ATCC BAA-1705 assessed as inhibition of bacterial growth incubated for 18 to 24 hrs by broth microdilution method; type: functional; details: time 18-24 hrs
Staphylococcus aureus [9] = test: Antibacterial activity against methicillin resistant Staphylococcus aureus ATCC 33591 assessed as inhibition of bacterial growth incubated for 18 to 24 hrs by broth microdilution method; type: functional; details: time 18-24 hrs
Pseudomonas aeruginosa [10] = test: Antibacterial activity against carbapenem resistant Pseudomonas aeruginosa clinical isolate 19-3 assessed as inhibition of bacterial growth incubated for 18 to 24 hrs by broth microdilution method; type: functional; details: time 18-24 hrs
Escherichia coli [11] = test: Antibacterial activity against KPC producing Escherichia coli ATCC BAA-2340 assessed as inhibition of bacterial growth incubated for 18 to 24 hrs by broth microdilution method; type: functional; details: time 18-24 hrs
[12] = system: Staphylococcus epidermidis; test: Antibacterial activity against methicillin resistant Staphylococcus epidermidis clinical isolate 19-5 assessed as inhibition of bacterial growth incubated for 18 to 24 hrs by broth microdilution method; type: functional; details: time 18-24 hrs
Pseudomonas aeruginosa [13] = test: Antibacterial activity against Pseudomonas aeruginosa ATCC 27853 assessed as inhibition of bacterial growth incubated for 18 to 24 hrs by broth microdilution method; type: functional; details: time 18-24 hrs
Klebsiella pneumoniae [14] = test: Antibacterial activity against carbapenem resistant Klebsiella pneumoniae clinical isolate 19-17 assessed as inhibition of bacterial growth incubated for 18 to 24 hrs by broth microdilution method; type: functional; details: time 18-24 hrs
Escherichia coli [15] = test: Antibacterial activity against Escherichia coli ATCC BAA-2523 assessed as inhibition of bacterial growth incubated for 18 to 24 hrs by broth microdilution method; type: functional; details: time 18-24 hrs
Escherichia coli [16] = test: Antibacterial activity against Escherichia coli NCTC 13353 assessed as inhibition of bacterial growth incubated for 18 to 24 hrs by broth microdilution method; type: functional; details: time 18-24 hrs
Acinetobacter baumannii [17] = test: Antibacterial activity against carbapenem resistant Acinetobacter baumannii clinical isolate 19-8 assessed as inhibition of bacterial growth incubated for 18 to 24 hrs by broth microdilution method; type: functional; details: time 18-24 hrs
[18] = Selectivity index, ratio of IC50 for cytotoxicity against human HK-2 cells to MIC for antibacterial activity against Escherichia coli ATCC BAA-2523; type: toxicity, cell-based
[19] = Cytotoxicity against human HK-2 cells assessed as inhibition of cell growth incubated for 72 hrs by CCK-8 assay; type: toxicity, cell-based

| Structure (SMILES) | MIC (Staphylococcus aureus [1]) | MIC (Pseudomonas aeruginosa [2]) | MIC (Acinetobacter baumannii [3]) | MIC (Klebsiella pneumoniae [4]) | MIC (Pseudomonas aeruginosa [5]) | MIC (Escherichia coli [6]) | MIC [7] | MIC (Klebsiella pneumoniae [8]) | MIC (Staphylococcus aureus [9]) | MIC (Pseudomonas aeruginosa [10]) | MIC (Escherichia coli [11]) | MIC [12] | MIC (Pseudomonas aeruginosa [13]) | MIC (Klebsiella pneumoniae [14]) | MIC (Escherichia coli [15]) | MIC (Escherichia coli [16]) | MIC (Acinetobacter baumannii [17]) | selectivity ratio [18] | IC50 at 72 h [19] |
| --- | --- | --- | --- | --- | --- | --- | --- | --- | --- | --- | --- | --- | --- | --- | --- | --- | --- | --- | --- |
| CCCCCCCCCC(=O)N[C@H](CCN)C(=O)N[C@H]1CCNC(=O)[C@H]([C@@H](C)O)NC(=O)[C@H](CCN)NC(=O)[C@H](CCN)NC(=O)[C@H](CC(C)C)NC(=O)[C@@H](Cc2ccc(N)cc2)NC(=O)[C@H](CCN)NC1=O | > 64 µg/mL | > 64 µg/mL | > 64 µg/mL | > 64 µg/mL | > 64 µg/mL | 64 µg/mL (≈ 62.1 µM) | 32 µg/mL (≈ 31 µM) | > 64 µg/mL | > 64 µg/mL | > 64 µg/mL | 64 µg/mL (≈ 62.1 µM) | 16 µg/mL (≈ 15.5 µM) | > 64 µg/mL | > 64 µg/mL | 64 µg/mL (≈ 62.1 µM) | > 64 µg/mL | > 64 µg/mL | 3.6 | 228 µg/mL (≈ 221 µM) |
| CCCCCCCCCC(=O)N[C@H](CCN)C(=O)N[C@H]1CCNC(=O)[C@H](Cc2ccccc2)NC(=O)[C@H](CCN)NC(=O)[C@H](CCN)NC(=O)[C@H](Cc2ccccc2)NC(=O)[C@@H](CC(C)C)NC(=O)[C@H](CCN)NC1=O | 8 µg/mL (≈ 7.53 µM) | 8 µg/mL (≈ 7.53 µM) | 16 µg/mL (≈ 15.1 µM) | 8 µg/mL (≈ 7.53 µM) | 4 µg/mL (≈ 3.77 µM) | 4 µg/mL (≈ 3.77 µM) | 1 µg/mL (≈ 0.941 µM) | 1 µg/mL (≈ 0.941 µM) | 16 µg/mL (≈ 15.1 µM) | 4 µg/mL (≈ 3.77 µM) | 8 µg/mL (≈ 7.53 µM) | 1 µg/mL (≈ 0.941 µM) | 8 µg/mL (≈ 7.53 µM) | 8 µg/mL (≈ 7.53 µM) | 8 µg/mL (≈ 7.53 µM) | 8 µg/mL (≈ 7.53 µM) | 16 µg/mL (≈ 15.1 µM) | 5.4 | 43.1 µg/mL (≈ 40.6 µM) |
| CCCCCCCCCC(=O)N[C@H](CCN)C(=O)N[C@H]1CCNC(=O)[C@H](CC(=O)O)NC(=O)[C@H](CCN)NC(=O)[C@H](CCN)NC(=O)[C@H](CC(C)C)NC(=O)[C@@H](CC(C)C)NC(=O)[C@H](CCN)NC1=O | > 64 µg/mL | > 64 µg/mL | > 64 µg/mL | > 64 µg/mL | > 64 µg/mL | > 64 µg/mL | > 64 µg/mL | > 64 µg/mL | > 64 µg/mL | > 64 µg/mL | > 64 µg/mL | > 64 µg/mL | > 64 µg/mL | > 64 µg/mL | > 64 µg/mL | > 64 µg/mL | > 64 µg/mL | < 5.4 | 347 µg/mL (≈ 349 µM) |
| CCCCCCC[C@@H](O)CC(=O)N[C@@H](CCN)C(=O)N[C@H](CCN)C(=O)N[C@H]1CCNC(=O)[C@H](CC(C)C)NC(=O)[C@H](CCN)NC(=O)[C@H](CCN)NC(=O)[C@H](Cc2ccccc2)NC(=O)[C@@H](CC(C)C)NC(=O)[C@H](CCN)NC1=O | 8 µg/mL (≈ 6.99 µM) | 2 µg/mL (≈ 1.75 µM) | 16 µg/mL (≈ 14 µM) | 32 µg/mL (≈ 28 µM) | 2 µg/mL (≈ 1.75 µM) | 16 µg/mL (≈ 14 µM) | 4 µg/mL (≈ 3.5 µM) | 32 µg/mL (≈ 28 µM) | 16 µg/mL (≈ 14 µM) | 4 µg/mL (≈ 3.5 µM) | 16 µg/mL (≈ 14 µM) | 1 µg/mL (≈ 0.874 µM) | 2 µg/mL (≈ 1.75 µM) | 64 µg/mL (≈ 55.9 µM) | 8 µg/mL (≈ 6.99 µM) | 32 µg/mL (≈ 28 µM) | 16 µg/mL (≈ 14 µM) | 2.3 | 18.5 µg/mL (≈ 16.2 µM) |
| CCCCCCCCCC(=O)N[C@H](CCN)C(=O)N[C@H]1CCNC(=O)[C@H]([C@@H](C)O)NC(=O)[C@H](CCN)NC(=O)[C@H](CCN)NC(=O)[C@H](CC(C)C)NC(=O)[C@@H](Cc2cccc(Cl)c2)NC(=O)[C@H](CCN)NC1=O | 32 µg/mL (≈ 30.5 µM) | 32 µg/mL (≈ 30.5 µM) | 16 µg/mL (≈ 15.2 µM) | 4 µg/mL (≈ 3.81 µM) | 2 µg/mL (≈ 1.9 µM) | 2 µg/mL (≈ 1.9 µM) | 2 µg/mL (≈ 1.9 µM) | 2 µg/mL (≈ 1.9 µM) | 64 µg/mL (≈ 60.9 µM) | 2 µg/mL (≈ 1.9 µM) | 1 µg/mL (≈ 0.952 µM) | 2 µg/mL (≈ 1.9 µM) | 32 µg/mL (≈ 30.5 µM) | 4 µg/mL (≈ 3.81 µM) | 2 µg/mL (≈ 1.9 µM) | 4 µg/mL (≈ 3.81 µM) | 16 µg/mL (≈ 15.2 µM) | 21.3 | 42.5 µg/mL (≈ 40.4 µM) |
| CCCCCCCCCC(=O)N[C@H](CCN)C(=O)N[C@H]1CCNC(=O)[C@H](CC(C)C)NC(=O)[C@H](CCN)NC(=O)[C@H](CCN)NC(=O)[C@H](Cc2ccccc2)NC(=O)[C@@H](Cc2ccccc2)NC(=O)[C@H](CCN)NC1=O | 8 µg/mL (≈ 7.53 µM) | 8 µg/mL (≈ 7.53 µM) | 16 µg/mL (≈ 15.1 µM) | 8 µg/mL (≈ 7.53 µM) | 4 µg/mL (≈ 3.77 µM) | 8 µg/mL (≈ 7.53 µM) | 1 µg/mL (≈ 0.941 µM) | 16 µg/mL (≈ 15.1 µM) | 32 µg/mL (≈ 30.1 µM) | 4 µg/mL (≈ 3.77 µM) | 2 µg/mL (≈ 1.88 µM) | 1 µg/mL (≈ 0.941 µM) | 8 µg/mL (≈ 7.53 µM) | 16 µg/mL (≈ 15.1 µM) | 8 µg/mL (≈ 7.53 µM) | 8 µg/mL (≈ 7.53 µM) | 16 µg/mL (≈ 15.1 µM) | 4 | 32.2 µg/mL (≈ 30.3 µM) |
| CCCCCCC[C@H](O)CC(=O)N[C@H](CCN)C(=O)N[C@H]1CCNC(=O)[C@H](CC(C)C)NC(=O)[C@H](CCN)NC(=O)[C@H](CCN)NC(=O)[C@H](CC(C)C)NC(=O)[C@@H](CC(C)C)NC(=O)[C@H](CCN)NC1=O | > 64 µg/mL | 2 µg/mL (≈ 1.98 µM) | 1 µg/mL (≈ 0.99 µM) | 8 µg/mL (≈ 7.92 µM) | 2 µg/mL (≈ 1.98 µM) | 8 µg/mL (≈ 7.92 µM) | 16 µg/mL (≈ 15.8 µM) | 4 µg/mL (≈ 3.96 µM) | > 64 µg/mL | 4 µg/mL (≈ 3.96 µM) | 2 µg/mL (≈ 1.98 µM) | 2 µg/mL (≈ 1.98 µM) | 1 µg/mL (≈ 0.99 µM) | 8 µg/mL (≈ 7.92 µM) | 4 µg/mL (≈ 3.96 µM) | 8 µg/mL (≈ 7.92 µM) | 2 µg/mL (≈ 1.98 µM) | 19.4 | 77.6 µg/mL (≈ 76.8 µM) |
| CC[C@H](C)CCCCC(=O)N[C@H](CCN)C(=O)N[C@H]1CCNC(=O)[C@H](CC(C)C)NC(=O)[C@H](CCN)NC(=O)[C@H](CCN)NC(=O)[C@H](CC(C)C)NC(=O)[C@@H](CC(C)C)NC(=O)[C@H](CCN)NC1=O | > 64 µg/mL | 1 µg/mL (≈ 1.02 µM) | 8 µg/mL (≈ 8.16 µM) | 8 µg/mL (≈ 8.16 µM) | 2 µg/mL (≈ 2.04 µM) | 32 µg/mL (≈ 32.6 µM) | 16 µg/mL (≈ 16.3 µM) | 1 µg/mL (≈ 1.02 µM) | > 64 µg/mL | 2 µg/mL (≈ 2.04 µM) | 1 µg/mL (≈ 1.02 µM) | 4 µg/mL (≈ 4.08 µM) | 1 µg/mL (≈ 1.02 µM) | 8 µg/mL (≈ 8.16 µM) | 8 µg/mL (≈ 8.16 µM) | 16 µg/mL (≈ 16.3 µM) | 8 µg/mL (≈ 8.16 µM) | 10.9 | 86.9 µg/mL (≈ 88.6 µM) |
